Test: Solubility of Acid Blue 93 in several solvents
Type: physicochemical
Protocol: The solubility of Acid Blue 93, a water-soluble pH-sensitive triarylmethane dye, was determined by stirring 5 wt.-%0 of the dye in 95 wt.-%0 of the solvent. The following results reported in below Table 1 were obtained:
This is surprising since these water-soluble dyes are commonly known to be insoluble in organic solvents, as also seen in the above comparative solvents. In these comparative solvents, it can be observed that the solvent is not colored and that the dye remains in the form of particles and precipitates at the bottom of the recipient.

Solubility (5 wt.-% dye stirred in 95 wt.-% 1,2-propanediol): Soluble | Solubility (5 wt.-% dye stirred in 95 wt.-% 1-phenoxy-2-propanol): Insoluble | Solubility (5 wt.-% dye stirred in 95 wt.-% 1-phenoxy-ethanol): Insoluble | Solubility (5 wt.-% dye stirred in 95 wt.-% Carbitol (CAS 111-90-0)): Insoluble | Solubility (5 wt.-% dye stirred in 95 wt.-% benzylic alcohol): Insoluble | Solubility (5 wt.-% dye stirred in 95 wt.-% cyrene): Insoluble | Solubility (5 wt.-% dye stirred in 95 wt.-% diethyleneglycol): Soluble | Solubility (5 wt.-% dye stirred in 95 wt.-% dimethylsulfoxide): Soluble | Solubility (5 wt.-% dye stirred in 95 wt.-% dipropylene glycol): Insoluble | Solubility (5 wt.-% dye stirred in 95 wt.-% monoethyleneglycol): Soluble
Structure (SMILES): O=S(=O)([O-])c1ccc(N=C2C=CC(=C(c3ccc(Nc4ccc(S(=O)(=O)[O-])cc4)cc3)c3ccc(Nc4ccc(S(=O)(=O)O)cc4)cc3)C=C2)cc1.[Na+].[Na+] [Acid Blue 93]
